Results on 3 compounds are retold here after PMC8518382, “Identification of a Bromodomain‐like Region in 15‐Lipoxygenase‐1 Explains Its Nuclear Localization” (Angewandte Chemie (International Ed. in English), 2021).

In general, IC50 refers to the concentration that gives 50% inhibition.

The target in the assay is T1, 15-LOX-1 (Homo sapiens, UniProt P16050).
T1 sequence (P16050 1-662): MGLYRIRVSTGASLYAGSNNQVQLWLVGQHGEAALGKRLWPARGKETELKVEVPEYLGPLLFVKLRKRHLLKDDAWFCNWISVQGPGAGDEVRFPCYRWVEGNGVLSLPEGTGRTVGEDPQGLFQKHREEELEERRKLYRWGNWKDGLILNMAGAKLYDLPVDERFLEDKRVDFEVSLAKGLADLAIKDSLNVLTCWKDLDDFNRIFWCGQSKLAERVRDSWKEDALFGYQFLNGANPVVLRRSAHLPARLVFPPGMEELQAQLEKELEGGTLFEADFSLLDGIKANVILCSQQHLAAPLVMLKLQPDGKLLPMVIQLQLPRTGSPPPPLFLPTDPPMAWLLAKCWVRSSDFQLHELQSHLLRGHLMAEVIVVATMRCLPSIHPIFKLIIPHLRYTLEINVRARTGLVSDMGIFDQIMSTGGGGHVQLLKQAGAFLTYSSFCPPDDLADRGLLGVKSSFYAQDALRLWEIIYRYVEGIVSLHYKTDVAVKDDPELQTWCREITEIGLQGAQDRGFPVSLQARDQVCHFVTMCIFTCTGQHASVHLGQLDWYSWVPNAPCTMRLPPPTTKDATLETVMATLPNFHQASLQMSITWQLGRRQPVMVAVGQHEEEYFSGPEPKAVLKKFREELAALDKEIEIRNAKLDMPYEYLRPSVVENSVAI
Kind of assay: 15-LOX-1 activity assay, UV-absorbance change for linoleic acid conversion. It is filed as biochemical. The arrangement: His-tag (N); made in house; host or cells: E. coli BL21(DE3). The note with it: for IC50: 10 min pre-incubation at RT, 25 µM linoleic acid, absorbance 234 nm; for Hill-slope: linoleic acid conversion assay. From the text:
In brief, an alkyne‐alcohol was linked to propargyl halide (Cl or Br) using a CuI‐catalyzed Sonogashira cross‐coupling reaction followed by biotinylation of the alcohol using EDCI and HOBt as reagents to provide the desired biotinylated bis‐alkyne probes. The biotinylated bis‐alkynes were subjected to 15‐LOX‐1 binding studies using a 15‐LOX‐1 activity assay based on the UV‐absorbance change for linoleic acid conversion (Figure 1 a). […] Next, we evaluated the effect of the extension of the terminal ethyl substitution of inhibitor 1. […]
empty plasmid was proceed with the same procedure, which lysate was used as the negative control (referred as BL21 control later) in 15-LOX-1 recombinant enzyme inhibition studies.
1.3. Purification of recombinant human 15-LOX-1
The 15-LOX-1 with N-terminal his-tag was produced as described above. After removing the cell debris, the supernatant containing 15-LOX-1 was loaded on a Ni-NTA column (Qiagen, Hilden, Germany) pre-equilibrated with LOX lysis buffer. The column was washed twice with 30 column volume of LOX lysis buffer, and once with 30 column volume of wash buffer (25 mM HEPES, 300 mM NaCl, 25 mM Imidazole, pH 8.0). Later, the 15-LOX-1 was eluted twice with 2 column volume of elution buffer (25 mM HEPES, 300 mM NaCl, 250 mM Imidazole, pH 8.0), followed by desalting with a PD-10 column (Sigma-Aldrich) with LOX storage buffer (25 mM HEPES, 20% Glycerol, pH 7.5). The desalted 15-LOX-1 was further purified and concentrated with Vivaspin Turbo 15 (30.000 MWCO). The protein concentration was determined by Nanodrop spectrophotometry. The 100 μl aliquots of 15-LOX-1 were stored at -20 for further experiments.
15-LOX-1 recombinant enzyme inhibition assay
The 15-LOX-1 inhibition assay has been detailed previously. Briefly, the conversion of linoleic acid to hydroperoxy-(9Z,11E)-octadecadienoic acid (λmax of 234 nm) was used to determine the activity of the 15-LOX-1 enzyme. The conversion rate was the slope of UV-absorbance at 234 nm overtime at the […]
To determine the IC50 of probes, the cell lysate was pre-diluted in LOX assay buffer at a ratio of 1:160. The inhibition assay was done in an F-bottom UV-STAR 96-well plate, in which 50 µl of the diluted enzyme was incubated with 140 µl of a probe diluted in LOX assay buffer for 10 min at room temperature (RT). Later 10 µl of 500 µM linoleic acid dissolved in ethanol was added to the plate to reach a final concentration of 25 µM. The UV-absorbance at 234 nm was determined by a BioTek Synergy H1 plate reader (BioTek, Winooski, VT, USA) . The slope of the 15-LOX-1 sample untreated with the probe was set as 100%, while the slope of the BL21 control sample was set as 0%.
For the determination of enzyme kinetics, a series concentration of linoleic acid was used. Fifty µl of pre-diluted 15-LOX-1 enzyme was incubated with 140 µl of probe solution at a fixed concentration for 10 min at RT. Subsequently, 10 µl of a series concentration of linoleic acid was added to a final concentration ranging from 10 µM to 100 µM. The conversion rate was calculated as the same as […]
described in the IC50 determination assay. Michaelis-Menten plots, Lineweaver-Burk plots, Km, and Vmax, are generated using GraphPad Prism 8.3.0. […]

Values joined by “and” are separate entries in the source; they are usually repeats but may differ in a detail not shown here. Equal entries are not always repeated.

For the compound `c1ccc2c(c1)SCc1c-2[nH]c2ccccc12` [PD146176], the IC50 was approximately 4 µM and the Hill-slope came out at 1.

On to `O=c1cc(-c2ccccc2)oc2cc(O)c(O)c(O)c12` [Baicalein], for which the Hill-slope entry is “much higher”.

Turning to `CCCCCC#CCC#CCOC(=O)CCCC[C@@H]1SC[C@@H]2NC(=O)N[C@@H]21` [Labelox B (3)], the IC50 is 0.62 µM and 0.6 µM. Further, the “Mode of inhibition (Lineweaver–Burk plots)” value (Km constant, Vmax decreases with inhibitor concentration) is given as “non‐competitive LOX inhibition”.
